In ChEMBL document CHEMBL1124910, “Inhibition of human leukocyte elastase. 1. Inhibition by C-7-substituted cephalosporin tert-butyl esters” (J Med Chem, 1990):

How the values were obtained:
Neutrophil elastase [1] = molecular target: T1, Neutrophil elastase (Homo sapiens, UniProt P08246); assay: Inhibitory concentration which is required to cause 50% inhibition of human leukocyte elastase (HLE) enzyme
T1 sequence (P08246 whole entry): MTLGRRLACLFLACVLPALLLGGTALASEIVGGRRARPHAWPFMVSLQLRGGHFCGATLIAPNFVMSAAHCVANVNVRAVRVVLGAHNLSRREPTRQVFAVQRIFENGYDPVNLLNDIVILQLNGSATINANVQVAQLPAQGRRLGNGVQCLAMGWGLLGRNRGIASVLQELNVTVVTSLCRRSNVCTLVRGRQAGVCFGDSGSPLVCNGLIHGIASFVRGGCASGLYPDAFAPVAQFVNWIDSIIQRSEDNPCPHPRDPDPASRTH

[2] = molecular target: T2, Neutrophil elastase (Homo sapiens) (UniProt P08246)
T2 sequence (whole entry): T1 sequence (P08246 whole entry)
Description: Second-order rate constant (Kobs/[I]) for inactivation of Human Leukocyte Elastase was determined

[3] = molecular target: T2, Neutrophil elastase (Homo sapiens); assay: Second-order rate constant (Kobs/[I]) for inactivation was determined
Chymotrypsinogen A [4] = molecular target: T3, Chymotrypsinogen A (Bos taurus, UniProt P00766); assay: Inhibitory concentration which is required to cause 50% inhibition of bovine alpha-chymotrypsin (ChT)
Serine protease 1 [5] = molecular target: T4, Serine protease 1 (Bos taurus, UniProt P00760); assay: Inhibitory concentration which is required to cause 50% inhibition of Trypsin
T4 sequence (P00760 whole entry): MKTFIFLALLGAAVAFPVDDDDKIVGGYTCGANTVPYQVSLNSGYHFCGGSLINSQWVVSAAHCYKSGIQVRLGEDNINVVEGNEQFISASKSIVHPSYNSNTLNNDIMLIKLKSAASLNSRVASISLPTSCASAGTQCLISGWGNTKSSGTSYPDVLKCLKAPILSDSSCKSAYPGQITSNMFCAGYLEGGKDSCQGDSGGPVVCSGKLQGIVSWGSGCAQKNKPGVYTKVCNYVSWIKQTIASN

Pancreatic elastase [6] = molecular target: T5, Pancreatic elastase (Sus scrofa, UniProt P08419+P00772); assay: Inhibitory concentration which is required to cause 50% inhibition of porcine pancreatic elastase (PPE); format: protein assay
Neutrophil elastase [7] = molecular target: T1, Neutrophil elastase; assay: Inhibitory concentration which is required to cause 50% inhibition of human leukocyte elastase (HLE) enzyme; NVT indicates nonvalid test
Serine protease 1 [8] = molecular target: T4, Serine protease 1; assay: Inhibitory concentration which is required to cause 50% inhibition of bovine trypsin (Trp)
Pancreatic elastase [9] = molecular target: T5, Pancreatic elastase; assay: Inhibitory concentration which is required to cause 50% inhibition of Porcine pancreatic elastase (PPE) enzyme; format: protein assay
Chymotrypsinogen A [10] = molecular target: T3, Chymotrypsinogen A; assay: Inhibitory concentration which is required to cause 50% inhibition of alpha-chymotrypsin enzyme

| Compound | IC50 (Neutrophil elastase [1]) [µM] | also measured |
| --- | --- | --- |
| CCO[C@H]1C(=O)N2C(C(=O)OC(C)(C)C)=C(COC(C)=O)CS[C@H]12 | > 40 | – |
| CCCO[C@H]1C(=O)N2C(C(=O)OC(C)(C)C)=C(COC(C)=O)CS[C@H]12 | > 40 | – |
| CNC(=O)O[C@H]1C(=O)N2C(C(=O)OC(C)(C)C)=C(COC(C)=O)CS(=O)(=O)[C@H]12 | 1 | K obs / 1 [2]: 180 M⁻¹ s⁻¹ |
| CC(=O)OCC1=C(C(=O)OC(C)(C)C)N2C(=O)[C@H](F)[C@H]2S(=O)(=O)C1 | 0.06 | – |
| CC(=O)OCC1=C(C(=O)OC(C)(C)C)N2C(=O)[C@@H](NC(=O)C(F)(F)F)[C@H]2S(=O)(=O)C1 | > 40 | – |
| CC(=O)OCC1=C(C(=O)OC(C)(C)C)N2C(=O)[C@H](NC=O)[C@H]2S(=O)(=O)C1 | 4 | K obs / 1 [3]: 1200 M⁻¹ s⁻¹ |
| CCO[C@H]1C(=O)N2C(C(=O)OC(C)(C)C)=C(COC(C)=O)C[S+]([O-])[C@H]12 (stereo in doubt; 6b) | 40 | – |
| CO[C@@H]1C(=O)N2C(C(=O)OC(C)(C)C)=C(COC(C)=O)CS(=O)(=O)[C@H]12 | > 40 | – |
| CC(=O)OCC1=C(C(=O)OC(C)(C)C)N2C(=O)[C@H](OC(=O)c3ccccc3)[C@H]2S(=O)(=O)C1 | > 40 | – |
| CC(=O)OCC1=C(C(=O)OC(C)(C)C)N2C(=O)[C@H](Cl)[C@H]2S(=O)(=O)C1 | 0.04 | K obs / 1 [2]: 161000 M⁻¹ s⁻¹ |
| CC(=O)OCC1=C(C(=O)OC(C)(C)C)N2C(=O)[C@H](OCCc3ccccc3)[C@H]2S(=O)(=O)C1 | 5 | – |
| CC(=O)OCC1=C(C(=O)OC(C)(C)C)N2C(=O)[C@H](OC(C)=O)[C@H]2S(=O)(=O)C1 | 6 | IC50 (Chymotrypsinogen A [4]): > 40 µM; K obs / 1 [2]: 950 M⁻¹ s⁻¹; IC50 (Serine protease 1 [5]): > 40 µM; IC50 (Pancreatic elastase [6]): 2 µM |
| COC(=O)N[C@H]1C(=O)N2C(C(=O)OC(C)(C)C)=C(COC(C)=O)CS(=O)(=O)[C@H]12 | 4 | K obs / 1 [3]: 1600 M⁻¹ s⁻¹ |
| CCC(=O)O[C@H]1C(=O)N2C(C(=O)OC(C)(C)C)=C(COC(C)=O)CS[C@H]12 | 36 | – |
| CC(=O)OCC1=C(C(=O)OC(C)(C)C)N2C(=O)[C@H](OS(=O)(=O)c3ccc(C)cc3)[C@H]2SC1 | – | IC50 (Neutrophil elastase [7]): Non valid test |
| CC(=O)OCC1=C(C(=O)OC(C)(C)C)N2C(=O)C[C@H]2S(=O)(=O)C1 | > 40 | – |
| CC(=O)OCC1=C(C(=O)OC(C)(C)C)N2C(=O)[C@H](OC=O)[C@H]2S(=O)(=O)C1 | 0.3 | IC50 (Pancreatic elastase [6]): 0.4 µM; K obs / 1 [3]: 59000 M⁻¹ s⁻¹; IC50 (Serine protease 1 [8]): > 40 µM |
| CCC(=O)O[C@H]1C(=O)N2C(C(=O)OC(C)(C)C)=C(COC(C)=O)CS(=O)(=O)[C@H]12 | 10 | K obs / 1 [2]: 80 M⁻¹ s⁻¹ |
| CO[C@H]1C(=O)N2C(C(=O)OC(C)(C)C)=C(COC(C)=O)CS(=O)(=O)[C@H]12 | 1 | K obs / 1 [2]: 19000 M⁻¹ s⁻¹ |
| CCC(C)O[C@H]1C(=O)N2C(C(=O)OC(C)(C)C)=C(COC(C)=O)CS(=O)(=O)[C@H]12 (some centres undefined) | 28 | – |
| CCCCO[C@H]1C(=O)N2C(C(=O)OC(C)(C)C)=C(COC(C)=O)CS(=O)(=O)[C@H]12 | > 40 | – |

| Compound | IC50 (Neutrophil elastase [1]) [µM] | also measured |
| --- | --- | --- |
| CC(=O)OCC1=C(C(=O)OC(C)(C)C)N2C(=O)[C@H](NC(=O)Cc3cccs3)[C@H]2S(=O)(=O)C1 | > 40 | – |
| CC(=O)OCC1=C(C(=O)OC(C)(C)C)N2C(=O)[C@H](OC(=O)Cc3ccccc3)[C@H]2S(=O)(=O)C1 | 10 | IC50 (Pancreatic elastase [9]): 20 µM; IC50 (Serine protease 1 [5]): > 40 µM; IC50 (Chymotrypsinogen A [10]): 4 µM |
| O=C(O)[C@H]1/C(=C/CO)O[C@@H]2CC(=O)N21 [CLAVULANIC ACID] | < 40 | – |
| O=C(OCc1ccccc1)[C@H]1/C(=C/CO)O[C@@H]2CC(=O)N21 | 4 | – |
| CC(=O)OCC1=C(C(=O)OC(C)(C)C)N2C(=O)[C@@H](NC(=O)Cc3cccs3)[C@H]2S(=O)(=O)C1 | > 40 | – |
| CCCCO[C@H]1C(=O)N2C(C(=O)OC(C)(C)C)=C(COC(C)=O)CS[C@H]12 | > 40 | – |
| CC(=O)OCC1=C(C(=O)OC(C)(C)C)N2C(=O)[C@H](OCc3ccccc3)[C@H]2S(=O)(=O)C1 | > 10 | – |
| CO[C@H]1C(=O)N2C(C(=O)OC(C)(C)C)=C(COC(C)=O)CS[C@H]12 | 10 | – |
| CCO[C@H]1C(=O)N2C(C(=O)OC(C)(C)C)=C(COC(C)=O)C[S+]([O-])[C@H]12 (stereo in doubt; 7b) | > 40 | – |
| CC(=O)OCC1=C(C(=O)OC(C)(C)C)N2C(=O)[C@H](NC(=O)C(F)(F)F)[C@H]2S(=O)(=O)C1 | 2 | – |
| CCCC[C@H]1C(=O)N2C(C(=O)OC(C)(C)C)=C(COC(C)=O)CS(=O)(=O)[C@H]12 | 40 | – |
| CC(=O)OCC1=C(C(=O)OC(C)(C)C)N2C(=O)[C@H](F)[C@H]2SC1 | 20 | – |
| CCC(CC)O[C@H]1C(=O)N2C(C(=O)OC(C)(C)C)=C(COC(C)=O)CS(=O)(=O)[C@H]12 | > 40 | – |
| CO[C@H]1C(=O)N2C(C(=O)OC(C)(C)C)=C(COC(C)=O)C[S@+]([O-])[C@H]12 | 4 | K obs / 1 [3]: 500 M⁻¹ s⁻¹ |
| CCC(C)O[C@H]1C(=O)N2C(C(=O)OC(C)(C)C)=C(COC(C)=O)CS[C@H]12 (some centres undefined) | > 40 | – |
| CC(=O)OCC1=C(C(=O)OC(C)(C)C)N2C(=O)[C@H](OC(=O)COc3ccccc3)[C@H]2S(=O)(=O)C1 | 6 | – |
| CC(=O)OCC1=C(C(=O)OC(C)(C)C)N2C(=O)[C@@H](N)[C@H]2SC1 | > 40 | – |
| CO[C@H]1C(=O)N2C(C(=O)OC(C)(C)C)=C(COC(C)=O)C[S@@+]([O-])[C@H]12 | > 40 | – |
| CC(=O)OCC1=C(C(=O)OC(C)(C)C)N2C(=O)[C@H](Cl)[C@H]2SC1 | 2 | – |
| CC(=O)OCC1=C(C(=O)OC(C)(C)C)N2C(=O)[C@H](Oc3ccccc3)[C@H]2S(=O)(=O)C1 | 1 | K obs / 1 [2]: 720 M⁻¹ s⁻¹ |
